Active and inactive are the calls of the source. The calls are words filed in the database; no cut-off is given here.
How the values were obtained:
Calf thymus DNA = test: Binding affinity to calf thymus DNA at 50 uM incubated for 30 mins and measured by fluorescence spectroscopy; format: nucleic-acid assay; settings: Bos taurus
Histone deacetylase 1 = Histone deacetylase 1 (Homo sapiens, UniProt Q13547); test: Inhibition of HDAC1 in human HeLa cell nuclear extract using Boc-Lys(Ac)-AMC or Boc-Lys(triflouroacetyl)-AMC as substrate incubated for 30 mins and measured by fluorescence assay; format: cell-free
MC-38 [1] = test: Antitumor activity against mouse MC38 cells xenografted in C57BL/6 mouse assessed as decrease in tumor weight at 50 to 100 mg/kg, ip administered every 2 days for 16 consecutive days; format: functional, organism-based; settings: dose 50-100 mg/kg, time 16.0 day
[2] = target: Histone deacetylase (HDAC1 and HDAC2) (Homo sapiens, UniProt Q13547+Q92769); test: Inhibition of HDAC1/HDAC2 in human HeLa cell nuclear extract using Boc-Lys(Ac)-AMC as substrate and measured by fluorometric method; format: cell-based
HepG2 = test: Antiproliferative activity against human HepG2 cells after 48 hrs by CCK-8 assay; format: functional, cell-based; settings: HepG2, 48 h
MC-38 [3] = test: Antitumor activity against mouse MC38 cells xenografted in C57BL/6 mouse assessed as decrease in Ac-HH3 expression in tumor at 50 to 100 mg/kg, ip administered every 2 days for 16 consecutive days measured by immunohistochemistry analysis; format: functional, organism-based; settings: dose 50-100 mg/kg, time 16.0 day
HCT-116 [4] = test: Induction of apoptosis in human HCT-116 cells assessed as early apoptotic cells at 1.5 uM incubated for 48 hrs by PI and annexin V-FITC staining based flow cytometry (reference value: 3.4%); format: functional
Histone deacetylase 8 = target: T1, Histone deacetylase 8 (Homo sapiens, UniProt Q9BY41); test: Inhibition of HDAC8 in human HeLa cell nuclear extract using Boc-Lys(Ac)-AMC or Boc-Lys(triflouroacetyl)-AMC as substrate incubated for 30 mins and measured by fluorescence assay; format: cell-free
T1 sequence (Q9BY41 whole entry): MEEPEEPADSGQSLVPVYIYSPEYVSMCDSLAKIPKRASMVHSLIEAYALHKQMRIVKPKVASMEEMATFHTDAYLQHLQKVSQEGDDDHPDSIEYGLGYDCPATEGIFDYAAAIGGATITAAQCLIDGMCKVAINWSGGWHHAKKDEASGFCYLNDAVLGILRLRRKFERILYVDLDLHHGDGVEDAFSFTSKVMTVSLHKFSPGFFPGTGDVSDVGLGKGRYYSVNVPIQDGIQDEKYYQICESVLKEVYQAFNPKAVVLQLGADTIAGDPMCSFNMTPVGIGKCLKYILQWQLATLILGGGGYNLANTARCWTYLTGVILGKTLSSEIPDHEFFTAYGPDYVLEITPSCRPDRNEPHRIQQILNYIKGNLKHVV

MC-38 [5] = test: Antitumor activity against mouse MC38 cells xenografted in C57BL/6 mouse assessed as decrease in tumor volume at 50 to 100 mg/kg, ip administered every 2 days for 16 consecutive days; format: functional, organism-based; settings: dose 50-100 mg/kg, time 16.0 day
HCT-116 [6] = test: Downregulation of SPT16 expression in human HCT-116 cells at 0.17 to 1.5 uM measured after 24 hrs by Western blot analysis; format: functional, cell-based; settings: dose 0.17-1.5 µM
MC-38 [7] = test: Antiproliferative activity against mouse MC38 cells after 48 hrs by CCK-8 assay; format: functional, cell-based; settings: MC-38, 48 h
MC-38 [8] = test: Antitumor activity against mouse MC38 cells xenografted in C57BL/6 mouse assessed as induction of apoptosis in tumor at 50 to 100 mg/kg, ip administered every 2 days for 16 consecutive days measured by TUNEL staining based assay; format: functional, organism-based; settings: dose 50-100 mg/kg, time 16.0 day
MC-38 [9] = test: Antitumor activity against mouse MC38 cells xenografted in C57BL/6 mouse assessed as tumor growth inhibition at 50 mg/kg, ip administered every 2 days for 16 consecutive days; format: functional; settings: MC-38, 384 h, time 16 day, read-out: TGI
MC38 = test: Inhibition of HDAC in mouse MC-38 cells assessed as increase in acetylated HH3 expression expression at 0.17 to 1.5 uM incubated for 48 hrs by Western blot analysis; format: cell-based; settings: dose 0.17-1.5 µM
HeLa = test: Antiproliferative activity against human HeLa cells after 48 hrs by CCK-8 assay; format: functional, cell-based
[10] = target: Histone deacetylase (Homo sapiens) (UniProt Q13547+O15379+Q9UBN7+Q92769+Q9UQL6+Q8WUI4+Q9BY41+Q96DB2+P56524+Q9UKV0+Q969S8); test: Inhibition of HDAC in human HCT-116 cells assessed as increase in acetylated HH3 expression expression at 0.17 to 1.5 uM incubated for 48 hrs by Western blot analysis; format: cell-based; settings: dose 0.17-1.5 µM
MOLT-4 = test: Antiproliferative activity against human MOLT-4 cells after 48 hrs by CCK-8 assay; format: functional, cell-based; settings: MOLT-4, 48 h
K562 = test: Antiproliferative activity against human K562 cells after 48 hrs by CCK-8 assay; format: functional, cell-based; settings: K562, 48 h

Chain of Histone deacetylase 1 (Q13547 whole entry): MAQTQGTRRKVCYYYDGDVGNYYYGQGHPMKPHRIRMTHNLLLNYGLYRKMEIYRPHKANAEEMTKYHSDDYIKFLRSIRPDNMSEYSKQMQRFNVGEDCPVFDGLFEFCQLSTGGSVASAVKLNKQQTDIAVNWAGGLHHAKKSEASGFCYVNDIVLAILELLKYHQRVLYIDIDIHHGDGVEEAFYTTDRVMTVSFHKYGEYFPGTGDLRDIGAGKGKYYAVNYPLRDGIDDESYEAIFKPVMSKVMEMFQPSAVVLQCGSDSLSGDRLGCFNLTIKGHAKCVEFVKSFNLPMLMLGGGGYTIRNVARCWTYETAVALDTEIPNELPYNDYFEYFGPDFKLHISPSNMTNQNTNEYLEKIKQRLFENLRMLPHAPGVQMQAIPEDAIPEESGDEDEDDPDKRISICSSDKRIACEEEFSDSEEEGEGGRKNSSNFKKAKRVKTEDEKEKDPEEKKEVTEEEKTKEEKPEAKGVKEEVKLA

O=C(CCCCCOc1cccc(-c2nnc(-c3ccccc3)s2)c1)NO
Activity (Calf thymus DNA): Active | IC50 (Histone deacetylase 1): 15 nM | Activity (MC-38 [1]): Active | IC50 [2]: 38 nM | IC50 (HepG2): 1400 nM | Activity (MC-38 [3]): Active | Activity (HCT-116 [4]): 38.5% | IC50 (Histone deacetylase 8): 3030 nM | Activity (MC-38 [5]): Active | Activity (HCT-116 [6]): Active | IC50 (MC-38 [7]): 430 nM | Activity (MC-38 [8]): Active | inhibition in vivo at 50 mg/kg (MC-38 [9]): 66% | inhibition (MC38): Active | IC50 (HeLa): 780 nM | inhibition [10]: Active | IC50 (MOLT-4): 150 nM | IC50 (K562): 910 nM

From ChEMBL document CHEMBL5108012, “Discovery of 2,5-diphenyl-1,3,4-thiadiazole derivatives as HDAC inhibitors with DNA binding affinity” (Eur J Med Chem, 2022)
